Reference: patent publication US20120015925A1, “NOVEL BENZOTHIAZEPINE AND BENZOTHIEPINE COMPOUNDS” (ASAHI KASEI PHARMA CORPORATION, priority 2004, published 2012)

These compounds were tested against T1, human IBAT (Homo sapiens, UniProt Q12908) (assay: In vitro assay using Cos 7 cells, transiently expressed human IBAT). Settings: [3H]-taurocholate 8 μM uptake, 37° C., 60 minutes.
T1 sequence (Q12908 1-348): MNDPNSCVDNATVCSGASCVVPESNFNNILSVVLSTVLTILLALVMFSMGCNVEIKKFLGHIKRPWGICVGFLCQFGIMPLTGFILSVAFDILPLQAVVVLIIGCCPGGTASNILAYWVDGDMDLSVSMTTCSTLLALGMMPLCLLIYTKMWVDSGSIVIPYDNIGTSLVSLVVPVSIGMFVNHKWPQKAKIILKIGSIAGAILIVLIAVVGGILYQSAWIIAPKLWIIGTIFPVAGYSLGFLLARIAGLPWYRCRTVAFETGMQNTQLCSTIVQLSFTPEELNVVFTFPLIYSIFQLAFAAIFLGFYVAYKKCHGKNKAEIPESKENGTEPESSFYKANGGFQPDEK
Assay type: cell-based
Experimental: In the present Test Example, an in vitro assay of compounds using Cos 7 cells as to inhibitory activity on transiently expressed human IBAT or rat IBAT transporter was performed according to the method described in Am. J. Physiol., 274, G157-169.
That is, […] cells/well of Cos 7 cells were seeded in a 24-well plate, and after one day, the cells were transfected with 0.3 μg/well of cDNA of human IBAT or rat IBAT using FuGENE6 (supplied from Roche). After culturing for one day after the transfection, the cells were washed once with the assay buffer, i.e., Hanks buffer containing 25 mM glucose and 10 mM HEPES (pH 7.4). The assay buffer was then replaced with the assay buffer containing the test compound. [^3H]-Taurocholate at a final concentration of 8 μM was added thereto and incubated at 37° C. for 60 minutes so that [^3H]-taurocholate was taken into Cos 7 cells by the action of human IBAT or rat IBAT. The cells were washed twice with the assay buffer containing 1 mM taurocholate, and subsequently lysed with 0.2 M NaOH to stop the reaction. The cell lysate was added to 4 mL of liquid scintillation cocktail, which was then thoroughly vortexed. Then the radioactivity was measured using the liquid scintillation counter.

SMILES | IC50 [nM]
CCCCC1(CCCC)CS(=O)(=O)c2ccc(N(C)C)cc2C(c2cccc(NC(=S)Nc3ccc(C[N+](C)(CCC)CCC)cc3)c2)N1 (racemic) [EXAMPLE 3426] | 58
CCCCC1(CCCC)CS(=O)(=O)c2ccc(N(C)C)cc2C(c2cccc(NC(=S)Nc3ccc(C[N+](C)(C)Cc4cccs4)cc3)c2)N1 (racemic) [EXAMPLE 3449] | 55
CCCCC1(CCCC)CS(=O)(=O)c2ccc(N(C)C)cc2C(c2cccc(NC(=S)Nc3ccc(C[N+](C)(C)CC(C)O)cc3)c2)N1 (racemic) [EXAMPLE 3454] | 68
CCCCC1(CCCC)CS(=O)(=O)c2ccc(N(C)C)cc2C(c2cccc(NC(=S)Nc3ccc(C[N+](C)(C)CCN(C)C)cc3)c2)N1 (racemic) [EXAMPLE 3506] | 127
CCCCC1(CCCC)CS(=O)(=O)c2ccc(N(C)C)cc2C(c2cccc(NC(=S)Nc3ccc(C[N+]4(C)CCCCC4)cc3)c2)N1 (racemic) [EXAMPLE 3587] | 70
CCCCC1(CCCC)CS(=O)(=O)c2ccc(N(C)C)cc2C(c2cccc(NC(=S)Nc3ccc(C[N+]45CCC(CC4)C(O)C5)cc3)c2)N1 (racemic) [EXAMPLE 3697] | 69
CCCCC1(CCCC)CS(=O)(=O)c2ccc(N(C)C)cc2C(c2cccc(NC(=S)Nc3ccc(C[n+]4ccccc4)cc3)c2)N1 (racemic) [EXAMPLE 3708] | 70
CCCCC1(CCCC)CS(=O)(=O)c2ccc(N(C)C)cc2C(c2cccc(NC(=S)Nc3ccc(C[n+]4cccc(CC)c4)cc3)c2)N1 (racemic) [EXAMPLE 3722] | 39
CCCCC1(CCCC)CS(=O)(=O)c2ccc(N(C)C)cc2C(c2cccc(NC(=S)Nc3ccc(C[n+]4cccc(-c5cccs5)c4)cc3)c2)N1 (racemic) [EXAMPLE 3726] | 73
CCCCC1(CCCC)CS(=O)(=O)c2ccc(N(C)C)cc2C(c2cccc(NC(=S)Nc3ccc(C[n+]4cc(C)cc(-c5ccccc5)c4)cc3)c2)N1 (racemic) [EXAMPLE 3730] | 84
CCCCC1(CCCC)CS(=O)(=O)c2ccc(N(C)C)cc2C(c2cccc(NC(=S)Nc3ccc(C[n+]4cccc(C(=O)c5ccccc5)c4)cc3)c2)N1 (racemic) [EXAMPLE 3748] | 81
CCCCC1(CCCC)CS(=O)(=O)c2ccc(N(C)C)cc2C(c2cccc(NC(=S)Nc3ccc(C[n+]4ccc(NC=O)cc4)cc3)c2)N1 (racemic) [EXAMPLE 3754] | 92
CCCCC1(CCCC)CS(=O)(=O)c2ccc(N(C)C)cc2C(c2cccc(NC(=S)Nc3ccc(C[n+]4ccc(CCc5ccncc5)cc4)cc3)c2)N1 (racemic) [EXAMPLE 3764] | 80
CCCCC1(CCCC)CS(=O)(=O)c2ccc(N(C)C)cc2C(c2cccc(NC(=S)Nc3ccc(C[n+]4ccc(N(C)C)cc4)cc3)c2)N1 (racemic) [EXAMPLE 4210] | 100
CCCCC1(CCCC)CS(=O)(=O)c2ccc(N(C)C)cc2C(c2cccc(NC(=S)Nc3ccc(C[n+]4ccc(C(C)O)cc4)cc3)c2)N1 (racemic) [EXAMPLE 5411] | 97
CCCCC1(CCCC)CS(=O)(=O)c2ccc(N(C)C)cc2C(c2cccc(NC(=S)Nc3ccc(C[n+]4cc(O)cc(Cl)c4)cc3)c2)N1 (racemic) [EXAMPLE 5417] | 26
CCCCC1(CCCC)CS(=O)(=O)c2ccc(N(C)C)cc2C(c2cccc(NC(=S)NCCC[N+]3(Cc4ccccc4)CCCC(CO)C3)c2)N1 (centres unmarked) [EXAMPLE 592] | 100
CCCCC1(CCCC)CS(=O)(=O)c2ccc(N(C)C)cc2C(c2cccc(NC(=S)NCCC[N+]3(Cc4ccccc4)CCC(CCO)CC3)c2)N1 (centres unmarked) [EXAMPLE 593] | 92
CCCCCC[N+](C)(C)Cc1ccc(NC(=S)Nc2cccc(C3NC(CCCC)(CCCC)CS(=O)(=O)c4ccc(N(C)C)cc43)c2)cc1 (centres unmarked) [EXAMPLE 3410] | 68
CCCCCCCC[N+](C)(C)Cc1ccc(NC(=S)Nc2cccc(C3NC(CCCC)(CCCC)CS(=O)(=O)c4ccc(N(C)C)cc43)c2)cc1 (centres unmarked) [EXAMPLE 3412] | 75
CCCCCCCCC[N+](C)(C)Cc1ccc(NC(=S)Nc2cccc(C3NC(CCCC)(CCCC)CS(=O)(=O)c4ccc(N(C)C)cc43)c2)cc1 (centres unmarked) [EXAMPLE 3413] | 73
CCCCCCCCCC[N+](C)(C)Cc1ccc(NC(=S)Nc2cccc(C3NC(CCCC)(CCCC)CS(=O)(=O)c4ccc(N(C)C)cc43)c2)cc1 (centres unmarked) [EXAMPLE 3414] | 88
C=CC[N+](C)(C)Cc1ccc(NC(=S)Nc2cccc(C3NC(CCCC)(CCCC)CS(=O)(=O)c4ccc(N(C)C)cc43)c2)cc1 (centres unmarked) [EXAMPLE 3429] | 55

SMILES | IC50 [nM]
C#CC[N+](C)(C)Cc1ccc(NC(=S)Nc2cccc(C3NC(CCCC)(CCCC)CS(=O)(=O)c4ccc(N(C)C)cc43)c2)cc1 (centres unmarked) [EXAMPLE 3433] | 55
CCC#CC[N+](C)(C)Cc1ccc(NC(=S)Nc2cccc(C3NC(CCCC)(CCCC)CS(=O)(=O)c4ccc(N(C)C)cc43)c2)cc1 (centres unmarked) [EXAMPLE 3434] | 71
CCCCC1(CCCC)CS(=O)(=O)c2ccc(N(C)C)cc2C(c2cccc(NC(=S)Nc3ccc(C[N+](C)(C)C(C)c4ccccc4)cc3)c2)N1 (centres unmarked) [EXAMPLE 3441] | 85
CCCCC1(CCCC)CS(=O)(=O)c2ccc(N(C)C)cc2C(c2cccc(NC(=S)Nc3ccc(C[N+](C)(C)CCOC(=O)c4ccccc4)cc3)c2)N1 (centres unmarked) [EXAMPLE 3558] | 70
CCCCC1(CCCC)CS(=O)(=O)c2ccc(N(C)C)cc2C(c2cccc(NC(=S)Nc3ccc(C[N+]4(CC)CCCC4)cc3)c2)N1 (centres unmarked) [EXAMPLE 3568] | 94
CCCCC1(CCCC)CS(=O)(=O)c2ccc(N(C)C)cc2C(c2cccc(NC(=S)Nc3ccc(C[N+]4(Cc5ccccc5)CCCCC4)cc3)c2)N1 (centres unmarked) [EXAMPLE 3593] | 70
CCCCC1(CCCC)CS(=O)(=O)c2ccc(N(C)C)cc2C(c2cccc(NC(=S)Nc3ccc(C[N+]4(C)CCC(O)CC4)cc3)c2)N1 (centres unmarked) [EXAMPLE 3599] | 54
CCCCC1(CCCC)CS(=O)(=O)c2ccc(N(C)C)cc2C(c2cccc(NC(=S)Nc3ccc(C[N+]4(Cc5ccccc5)CCCC(O)C4)cc3)c2)N1 (centres unmarked) [EXAMPLE 3604] | 45
CCCCC1(CCCC)CS(=O)(=O)c2ccc(N(C)C)cc2C(c2cccc(NC(=S)Nc3ccc(C[N+]45CCC(CC4)C(=O)C5)cc3)c2)N1 (centres unmarked) [EXAMPLE 3698] | 72
CCCCC1(CCCC)CS(=O)(=O)c2ccc(N(C)C)cc2C(c2cccc(NC(=S)Nc3ccc(C[n+]4ccc(CCC)cc4)cc3)c2)N1 (centres unmarked) [EXAMPLE 3711] | 63
CCCCC1(CCCC)CS(=O)(=O)c2ccc(N(C)C)cc2C(c2cccc(NC(=S)Nc3ccc(C[n+]4ccc(C(CC)CC)cc4)cc3)c2)N1 (centres unmarked) [EXAMPLE 3714] | 58
CCCCC(CCCC)c1cc[n+](Cc2ccc(NC(=S)Nc3cccc(C4NC(CCCC)(CCCC)CS(=O)(=O)c5ccc(N(C)C)cc54)c3)cc2)cc1 (centres unmarked) [EXAMPLE 3716] | 89
CCCCC1(CCCC)CS(=O)(=O)c2ccc(N(C)C)cc2C(c2cccc(NC(=S)Nc3ccc(C[n+]4ccc(-c5ccccc5)cc4)cc3)c2)N1 (centres unmarked) [EXAMPLE 3717] | 30
CCCCC1(CCCC)CS(=O)(=O)c2ccc(N(C)C)cc2C(c2cccc(NC(=S)Nc3ccc(C[n+]4cccc(-c5ccccc5)c4)cc3)c2)N1 (centres unmarked) [EXAMPLE 3724] | 69
CCCCC1(CCCC)CS(=O)(=O)c2ccc(N(C)C)cc2C(c2cccc(NC(=S)Nc3ccc(C[n+]4cccc(Cc5ccccc5)c4)cc3)c2)N1 (centres unmarked) [EXAMPLE 3725] | 52
CCCCC1(CCCC)CS(=O)(=O)c2ccc(N(C)C)cc2C(c2cccc(NC(=S)Nc3ccc(C[n+]4ccc(C)c(C)c4)cc3)c2)N1 (centres unmarked) [EXAMPLE 3727] | 66
CCCCC1(CCCC)CS(=O)(=O)c2ccc(N(C)C)cc2C(c2cccc(NC(=S)Nc3ccc(C[n+]4cc(C)cc(C)c4)cc3)c2)N1 (centres unmarked) [EXAMPLE 3729] | 88
CCCCC1(CCCC)CS(=O)(=O)c2ccc(N(C)C)cc2C(c2cccc(NC(=S)Nc3ccc(C[n+]4ccc(CCCO)cc4)cc3)c2)N1 (centres unmarked) [EXAMPLE 3733] | 57
CCCCC1(CCCC)CS(=O)(=O)c2ccc(N(C)C)cc2C(c2cccc(NC(=S)Nc3ccc(C[n+]4ccc(C(C)=O)cc4)cc3)c2)N1 (centres unmarked) [EXAMPLE 3736] | 50
CCCCCCOC(=O)c1ccc[n+](Cc2ccc(NC(=S)Nc3cccc(C4NC(CCCC)(CCCC)CS(=O)(=O)c5ccc(N(C)C)cc54)c3)cc2)c1 (centres unmarked) [EXAMPLE 3750] | 75
CCCCC1(CCCC)CS(=O)(=O)c2ccc(N(C)C)cc2C(c2cccc(NC(=S)CCCCC[N+]34CCC(CC3)C(O)C4)c2)N1 (centres unmarked) [EXAMPLE 3854] | 28
CCCCC1(CCCC)CS(=O)(=O)c2ccc(N(C)C)cc2C(c2cccc(NC(=S)Nc3ccc(C[n+]4ccccc4C)cc3)c2)N1 (centres unmarked) [EXAMPLE 5407] | 52
CCCCC1(CCCC)CS(=O)(=O)c2ccc(N(C)C)cc2C(c2cccc(NC(=S)Nc3ccc(C[n+]4c(C)cc(C)cc4C)cc3)c2)N1 (centres unmarked) [EXAMPLE 5409] | 42

Same assay, conditions: [3H]-taurocholate 8 μM, 37° C., 60 minutes

SMILES | IC50 [nM]
CCCCC1(CCCC)CS(=O)(=O)c2ccc(N(C)C)cc2C(c2cccc(NC(=S)Nc3ccc(C[n+]4ccccc4OCC)cc3)c2)N1 (racemic) [EXAMPLE 5415] | 44
